36 compounds from patent US20230303497A1, “BENZYLAMINE OR BENZYL ALCOHOL DERIVATIVE AND USES THEREOF” (CHENGDU HYPERWAY PHARMACEUTICALS CO., LTD, priority 2020, published 2023) can be followed below.

Chain of human NaV1.8 ion channel (Q9Y5Y9 whole entry): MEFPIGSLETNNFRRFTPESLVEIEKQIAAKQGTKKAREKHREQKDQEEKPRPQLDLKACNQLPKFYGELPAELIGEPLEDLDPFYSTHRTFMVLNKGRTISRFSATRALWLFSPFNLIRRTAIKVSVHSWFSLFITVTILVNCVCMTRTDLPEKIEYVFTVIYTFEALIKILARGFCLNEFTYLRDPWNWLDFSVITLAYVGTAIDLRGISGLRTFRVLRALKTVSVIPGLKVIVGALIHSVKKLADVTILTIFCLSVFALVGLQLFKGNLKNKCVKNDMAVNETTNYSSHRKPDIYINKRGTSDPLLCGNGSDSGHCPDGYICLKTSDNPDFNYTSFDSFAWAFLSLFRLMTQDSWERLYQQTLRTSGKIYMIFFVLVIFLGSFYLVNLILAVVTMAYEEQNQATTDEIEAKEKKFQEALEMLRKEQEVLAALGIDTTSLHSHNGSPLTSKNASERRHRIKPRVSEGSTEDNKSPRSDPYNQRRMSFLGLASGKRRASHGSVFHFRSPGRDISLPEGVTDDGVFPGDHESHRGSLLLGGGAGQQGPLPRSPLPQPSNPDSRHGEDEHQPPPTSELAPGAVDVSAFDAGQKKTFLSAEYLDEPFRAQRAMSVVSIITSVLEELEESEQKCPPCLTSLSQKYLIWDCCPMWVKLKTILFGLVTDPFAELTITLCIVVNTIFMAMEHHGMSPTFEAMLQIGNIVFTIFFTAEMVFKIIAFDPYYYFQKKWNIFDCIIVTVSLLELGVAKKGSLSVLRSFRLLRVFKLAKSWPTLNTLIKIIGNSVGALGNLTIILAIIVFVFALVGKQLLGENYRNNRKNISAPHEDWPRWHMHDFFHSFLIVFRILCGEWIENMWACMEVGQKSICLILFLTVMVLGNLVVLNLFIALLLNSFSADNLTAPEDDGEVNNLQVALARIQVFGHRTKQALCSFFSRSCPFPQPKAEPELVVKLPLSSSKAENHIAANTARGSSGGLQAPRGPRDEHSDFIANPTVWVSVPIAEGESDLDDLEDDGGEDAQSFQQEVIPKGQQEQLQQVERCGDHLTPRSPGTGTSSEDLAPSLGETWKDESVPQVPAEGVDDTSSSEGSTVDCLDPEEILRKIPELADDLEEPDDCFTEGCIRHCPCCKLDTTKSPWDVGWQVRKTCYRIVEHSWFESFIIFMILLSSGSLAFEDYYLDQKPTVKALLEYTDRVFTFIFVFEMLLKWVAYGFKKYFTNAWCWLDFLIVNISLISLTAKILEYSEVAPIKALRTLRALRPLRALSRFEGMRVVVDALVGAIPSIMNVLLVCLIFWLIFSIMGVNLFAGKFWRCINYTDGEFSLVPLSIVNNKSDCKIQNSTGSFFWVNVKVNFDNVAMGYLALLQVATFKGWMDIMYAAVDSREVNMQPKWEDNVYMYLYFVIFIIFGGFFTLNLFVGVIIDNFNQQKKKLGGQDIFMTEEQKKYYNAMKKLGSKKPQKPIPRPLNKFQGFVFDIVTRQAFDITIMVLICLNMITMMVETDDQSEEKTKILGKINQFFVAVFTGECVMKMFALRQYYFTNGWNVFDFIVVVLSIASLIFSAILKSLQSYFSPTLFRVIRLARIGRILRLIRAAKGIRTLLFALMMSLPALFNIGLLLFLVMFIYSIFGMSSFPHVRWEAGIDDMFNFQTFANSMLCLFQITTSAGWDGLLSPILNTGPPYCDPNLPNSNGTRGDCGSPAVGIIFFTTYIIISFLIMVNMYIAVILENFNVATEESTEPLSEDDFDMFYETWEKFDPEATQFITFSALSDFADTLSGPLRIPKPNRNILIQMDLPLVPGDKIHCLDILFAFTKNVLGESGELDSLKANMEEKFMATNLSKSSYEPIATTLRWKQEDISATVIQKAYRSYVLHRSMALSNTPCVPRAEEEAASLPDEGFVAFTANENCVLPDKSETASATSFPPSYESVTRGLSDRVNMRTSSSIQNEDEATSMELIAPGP

The target in one test is human NaV1.8 ion channel (Homo sapiens (Human), UniProt Q9Y5Y9). Put plainly: Compound inhibition activity on human NaV1.8 ion channel in HEK293 cells (whole-cell patch clamp). Particulars: 100 nm concentration; HEK293 cells, resting protocol. The format is cell-based. The procedure:
Test Case 1: Compound Inhibition Activity on Human NaV1.8 Ion Channel in HEK293 Cells
The final concentrations of the test compounds are prepared on the same day and then dissolved in extracellular solution. […] The intracellular solution (mM) contains: Aspartic acid, 140; MgCl2, 2; EGTA 11; HEPES, 10; pH 7.2 (CsOH titration). All test solutions contain 1 μM TTX.
The test solution are stored at a concentration of 3 mM in dimethyl sulfoxide (DMSO). The solutions will be dissolved in extracellular solution on the day of testing and prepared to the required concentration.
All experiments were performed at room temperature. Each cell itself is taken as the corresponding control.
At least one cell is tested per concentration.
HEK293 cell steady expressing NaV1.8 ion channel.
The intracellular fluid (mM) contains: Aspartic acid, 140; MgCl2, 2; EGTA 11; HEPES, 10; pH 7.2 (CsOH titration). […] Electrodes are drawn with PC-10 (Narishige, Japan). Recording is performed with whole-cell diaphragm clamp.
The cells are clamped at −80 mV and then depolarized to 10 mV with a sustained 10 ms square wave to give a Nav1.8 current. This procedure is repeated every 5 seconds.
Background: In patch-clamp work, channel activity is measured electrically.
On to “N-(3-(1-amino-3-fluoropropyl)-4-fluorophenyl)-4-cyclopropyl-2-(4-fluoro-2-methyl phenoxy)-5-(trifluoromethyl) benzamide [Example 21]”, for which the “Inhibition ratio of Nav1.8 (Activity of inhibition)” value was “B (80 > B >= 50)”.

Staying with this test, now noted: 100 nm concentration; HEK293 cells, resting protocol; read-out: Inhibition ratio of Nav1.8 (Activity of inhibition).
As for `Cc1cc(F)ccc1Oc1cc(C2CC2)c(C(F)(F)F)cc1C(=O)Nc1ccc(F)c(C(C)CCO)c1` (stereo not drawn) [Example 28, 4-cyclopropyl-2-(4-fluoro-2-methylphenoxy)-N-(4-fluoro-3-(4-hydroxybutan-2-yl)phenyl)-5-(trifluoromethyl) benzamide], the inhibition at 0.1 µM was 20 to 50%.

Take `Cc1cc(F)ccc1Oc1cc(C2CC2)c(C(F)(F)F)cc1C(=O)Nc1ccc(F)c(C(F)(F)CCO)c1` [Example 32, 4-Cyclopropyl-N-(3-(1,1-difluoro-3-hydroxypropyl)-4-fluorophenyl)-2-(4-fluoro-2-methylphenoxy)-5-(trifluoromethyl) benzamide]: the inhibition at 0.1 µM fell in the range of 20 to 50%.

In the case of `Cc1cc(F)ccc1Oc1cc(C2CC2)c(C(F)(F)F)cc1C(=O)Nc1ccc(F)c(C(N)CO)c1` (stereo not drawn) [Example 11, N-(3-(1-Amino-2-hydroxyethyl)-4-fluorophenyl)-4-cyclopropyl-2-(4-fluoro-2-methylphenoxy)-5-(trifluoromethyl) benzamide], the inhibition at 0.1 µM is > 80%.

On to `Cc1cc(F)ccc1Oc1ccc(C(F)(F)F)cc1C(=O)Nc1ccc(F)c(C(O)C(N)=O)c1` (stereo not drawn) [Example 26, N-(3-(2-Amino-1-hydroxy-2-oxoethyl)-4-fluorophenyl)-2-(4-fluoro-2-methylphenoxy)-5-(trifluoromethyl) benzamide], for which the inhibition at 0.1 µM fell in the range of 20 to 50%.

Consider `Cc1cc(F)ccc1Oc1cc(C2CC2)c(C(F)(F)F)cc1C(=O)Nc1ccc(F)c(C(F)CCO)c1` (stereo not drawn) [Example 31, 4-Cyclopropyl-2-(4-fluoro-2-methylphenoxy)-N-(4-fluoro-3-(1-fluoro-3-hydroxypropyl)phenyl)-5-(trifluoromethyl) benzamide], for which the inhibition at 0.1 µM was 50 to 80%.

In the case of `COCCNC(=O)C(N)c1cc(NC(=O)c2cc(C(F)(F)F)c(C3CC3)cc2Oc2ccc(F)cc2C)ccc1F` (stereo not drawn) [Example 44], the inhibition at 0.1 µM is 50 to 80%.

In the case of `Cc1cc(F)ccc1Oc1cc(C2CC2)c(C(F)(F)F)cc1C(=O)Nc1ccc(F)c(C(F)(F)C(=O)NCCO)c1` [Example 33, 4-Cyclopropyl-N-(3-(1,1-difluoro-2-((2-hydroxyethyl)amino)-2-oxoethyl)-4-fluorophenyl)-2-(4-fluoro-2-methylphenoxy)-5-(trifluoromethyl) benzamide], the inhibition at 0.1 µM is < 20%.

For `Cc1cc(F)ccc1Oc1cc(C2CC2)c(C(F)(F)F)cc1C(=O)Nc1ccc(F)c(C(C)CCN)c1` (stereo not drawn) [Example 29, N-(3-(4-Aminobutan-2-yl)-4-fluorophenyl)-4-cyclopropyl-2-(4-fluoro-2-methylphenoxy)-5-(trifluoromethyl) benzamide], the inhibition at 0.1 µM lay within 50 to 80%.

Regarding `Cc1cc(F)ccc1Oc1ccc(C(F)(F)F)cc1C(=O)Nc1ccc(F)c(CNCC(N)=O)c1` [Example 13], the inhibition at 0.1 µM fell in the range of 20 to 50%.

As for `Cc1cc(F)ccc1Oc1cc(C2CC2)c(C(F)(F)F)cc1C(=O)Nc1ccc(F)c(C(CCO)N(C)C)c1` (stereo not drawn) [Example 8, 4-Cyclopropyl-N-(3-(1-(dimethylamino)-3-hydroxypropyl)-4-fluorophenyl)-2-(4-fluoro-2-methylphenoxy)-5-(trifluoromethyl) benzamide], the inhibition at 0.1 µM is > 80%.

Staying with this test, now noted: 100 nm concentration; HEK293 cells, resting protocol; read-out: Inhibition ratio of compounds against Nav1.8 (Activity of inhibition).
On to `Cc1cc(F)ccc1Oc1cc(C2CC2)c(C(F)(F)F)cc1C(=O)Nc1ccc(F)c(C(C)CC(N)C(F)(F)F)c1` (stereo not drawn) [Example 53, N-(3-(4-Amino-5,5,5-trifluoropentan-2-yl)-4-fluorophenyl)-4-cyclopropyl-2-(4-fluoro-2-methylphenoxy)-5-(trifluoromethyl) benzamide], for which the inhibition at 0.1 µM was < 20%.

Take `Cc1cc(F)ccc1Oc1cc(C2CC2)c(C(F)(F)F)cc1C(=O)Nc1ccc(F)c(OCC(=O)NC2(C(F)(F)F)CC2)c1` [Example 89]: the inhibition at 0.1 µM lay within 50 to 80%.

`Cc1cc(F)ccc1Oc1cc(C2CC2)c(C(F)(F)F)cc1C(=O)Nc1ccc(F)c(C(CCO)N2CCCC2)c1` (stereo not drawn) [Example 72]: the inhibition at 0.1 µM fell in the range of 50 to 80%.

With `Cc1cc(F)ccc1Oc1cc(C2CC2)c(C(F)(F)F)cc1C(=O)Nc1ccc(F)c(OCC(O)CNC(C)C)c1` (stereo not drawn) [Example 67], the inhibition at 0.1 µM is > 80%.

On to `Cc1cc(F)ccc1Oc1cc(C2CC2)c(C(F)(F)F)cc1C(=O)Nc1ccc(F)c(OCC(=O)NCC(F)(F)F)c1` [Example 61], for which the inhibition at 0.1 µM lay in the range of 20 to 50%.

With `Cc1cc(F)ccc1Oc1cc(C2CC2)c(C(F)(F)F)cc1C(=O)Nc1ccc(F)c(OCC(O)CNC(C)(C)C)c1` (stereo not drawn) [Example 77], the inhibition at 0.1 µM is > 80%.

In the case of `Cc1cc(F)ccc1Oc1cc(C2CC2)c(C(F)(F)F)cc1C(=O)Nc1ccnc(OCC(O)CNC(C)(C)C)c1` (stereo not drawn) [Example 64, N-(2-(3-(tert-butylamino)-2-hydroxypropoxy)pyridin-4-yl)-4-cyclopropyl-2-(4-fluoro-2-methylphenoxy)-5-(trifluoromethyl) benzamide], the inhibition at 0.1 µM lay within 20 to 50%.

Regarding `Cc1cc(F)ccc1Oc1cc(C(F)(F)F)ccc1C(=O)Nc1cnnc(OC[C@H](O)CO)c1` [Example 109], the inhibition at 0.1 µM was in the range of 20 to 50%.

Take `Cc1cc(F)ccc1Oc1cc(C(F)(F)F)c(Cl)cc1C(=O)Nc1ccc(F)c(OC[C@@H](O)CNC(=O)CO)c1` [Example 118]: the inhibition at 0.1 µM was 50 to 80%.

Take `Cc1cc(F)ccc1Oc1cc(C2CC2)c(C(F)(F)F)cc1C(=O)Nc1cnnc(OC[C@@H](O)CO)c1` [Example 111]: the inhibition at 0.1 µM was 50 to 80%.

For `Cc1cc(F)ccc1Oc1cc(C2CC2)c(C(F)(F)F)cc1C(=O)Nc1ccc(F)c(OC2CCC(CO)OC2)c1` (stereo not drawn) [Example 84], the inhibition at 0.1 µM is 20 to 50%.

Consider `CC(=O)NCC(O)COc1cc(NC(=O)c2cc(C(F)(F)F)c(C3CC3)cc2Oc2ccc(F)cc2C)ccc1F` (stereo not drawn) [Example 81], for which the inhibition at 0.1 µM was 50 to 80%.

On to `Cc1cc(F)ccc1Oc1cc(C(F)(F)F)c(Cl)cc1C(=O)Nc1ccnc(OC[C@@H](O)CO)c1` [Example 113, (S)-5-chloro-N-(2-(2,3-dihydroxypropoxy)pyridin-4-yl)-2-(4-fluoro-2-methylphenoxy)-4-(trifluoromethyl) benzamide], for which the inhibition at 0.1 µM is > 80%.

As for `Cc1cc(F)ccc1Oc1cc(C2CC2)c(C(F)(F)F)cc1C(=O)Nc1ccc(F)c(OCC(O)CNc2nccs2)c1` (stereo not drawn) [Example 98], the inhibition at 0.1 µM was > 80%.

Regarding `Cc1cc(F)ccc1Oc1cc(C2CC2)c(C(F)(F)F)cc1C(=O)Nc1ccc(F)c(OC2CCC(CN)OC2)c1` (stereo not drawn) [Example 85], the inhibition at 0.1 µM was in the range of 20 to 50%.

Take `Cc1cc(F)ccc1Oc1cc(C2CC2)c(C(F)(F)F)cc1C(=O)Nc1ccc(F)c(OCc2ncc[nH]2)c1` [Example 74]: the inhibition at 0.1 µM was in the range of 50 to 80%.

On to `Cc1cc(F)ccc1Oc1cc(C2CC2)c(C(F)(F)F)cc1C(=O)Nc1ccc(F)c(OCC(O)CN)c1` (stereo not drawn) [Example 57, N-(3-(3-amino-2-hydroxypropoxy)-4-fluorophenyl)-4-cyclopropyl-2-(4-fluoro-2-methylphenoxy)-5-(trifluoromethyl) benzamide], for which the inhibition at 0.1 µM is > 80%.

For the compound `Cc1cc(F)ccc1Oc1cc(C2CC2)c(C(F)(F)F)cc1C(=O)Nc1ccc(F)c(OCC(O)CNc2ccc(F)cc2)c1` (stereo not drawn) [Example 96], the inhibition at 0.1 µM was in the range of 20 to 50%.

For `Cc1cc(F)ccc1Oc1cc(C2CC2)c(C(F)(F)F)cc1C(=O)Nc1ccc(F)c(C2CCNC(=O)N2)c1` (stereo not drawn) [Example 51, 4-Cyclopropyl-2-(4-fluoro-2-methylphenoxy)-N-(4-fluoro-3-(2-oxohexahydropyrimidin-4-yl)phenyl)-5-(trifluoromethyl) benzamide], the inhibition at 0.1 µM is > 80%.

Regarding `Cc1cc(F)ccc1Oc1cc(C2CC2)c(C(F)(F)F)cc1C(=O)Nc1ccc(F)c(OCC(O)CNc2ncc[nH]2)c1` (stereo not drawn) [Example 100], the inhibition at 0.1 µM fell in the range of 50 to 80%.

For the compound `Cc1cc(F)ccc1Oc1cc(C2CC2)c(C(F)(F)F)cc1C(=O)Nc1ccc(F)c(OCC(O)CNc2cnn(C)c2)c1` (stereo not drawn) [Example 97], the inhibition at 0.1 µM lay in the range of 50 to 80%.

Turning to `Cc1cc(F)ccc1Oc1cc(C2CC2)c(C(F)(F)F)cc1C(=O)Nc1ccc(F)c(OCC(N)=O)c1` [Example 76], the inhibition at 0.1 µM is > 80%.

For the compound `Cc1cc(F)ccc1Oc1cc(C2CC2)c(C(F)(F)F)cc1C(=O)Nc1ccc(F)c(OCC(O)CNCC(F)(F)F)c1` (stereo not drawn) [Example 87], the inhibition at 0.1 µM fell in the range of 50 to 80%.

With `Cc1cc(F)ccc1Oc1cc(C2CC2)c(C(F)(F)F)cc1C(=O)Nc1ccc(F)c(C(C)CC(O)CNC(C)(C)C)c1` (stereo not drawn) [Example 54, N-(3-(5-(tert-butylamino)-4-hydroxypentan-2-yl)-4-fluorophenyl)-4-cyclopropyl-2-(4-fluoro-2-methylphenoxy)-5-(trifluoromethyl) benzamide], the inhibition at 0.1 µM was 50 to 80%.

Staying with this test, now noted: HEK293, read-out: Inhibition ratio of compounds against Nav1.8 (Activity of inhibition).
With `Cc1cc(F)ccc1Oc1cc(C2CC2)c(C(F)(F)F)cc1C(=O)Nc1ccc(F)c(OCCOC(N)=O)c1` [Example 62, (2-(5-(4-Cyclopropyl-2-(4-fluoro-2-methylphenoxy)-5-(trifluoromethyl)benzamido)-2-fluorophenoxy)ethyl) carbamate], the inhibition at 0.1 µM was 50 to 80%.
